# According to patent EP1192182B1, “PITUITARY ADENYLATE CYCLASE ACTIVATING PEPTIDE (PACAP) RECEPTOR 3 (R3) AGONISTS AND THEIR PHARMACOLOGICAL METHODS OF USE” (priority 1999, dated 2001):
# Positions of bridges follow the written chain, without caps; N, C: chain ends. Non-standard residues stand in square brackets, D forms with d. Residues, ends and D or L forms follow the SMILES beside them. Nle = CCCC[C@H](N)C(=O)O
# Key:
# [1] = Intraperitoneal glucose tolerance test (IPGTT), plasma glucose; assay type: in vivo, Wistar rats; settings: plasma glucose area under the curve after IPGTT (1 g/kg glucose), % of vehicle; 1 nmol/kg peptide i.v.
# Description: Wistar rats are fasted overnight and then anesthetized with pentobarbital. The rats were eye-bled (zero time) and the peptide ( in 1% human albumin) was injected into the tail vein. Five minutes later, 1 g/kg of glucose (in saline) was injected intraperitoneally, and the rats were eye-bled after 15, 30 and 60 minutes. Plasma glucose levels were determined using the Technicon Axon autoanalyzer, Bayer Diagnosics division of Bayer Corporation, Tarrytown NY, operated using Method No. SM4-2143F90 "Glucose".
# In accordance with the protocol of example 2 above, overnight fasted Wistar rats were anesthetized with pentobarital; i.v. injected with glucose ± peptide and eye bled after 1 minute. N=12 rats/group. […] The peptide or vehicle was given i.v. followed by a glucose load given i.p. in accordance with example 3. The plasma glucose was followed over the time period indicated.
# Wistar rats were fasted overnight and then anesthetized with Pentobarbital. The rats were eye-bled (zero time) and the peptide (in 1 % human albumin) was injected subcutaneously. Five minutes later, 1 g/kg of glucose (in saline) was injected intraperitoneally, and the rats were eye-bled after 30 minutes.
# Plasma glucose: Data are expressed as % of vehicle of plasma glucose area under the curve after IPGTT (1 g/kg glucose) after treatment with 1 nmol/kg dose of the peptide. […] The present Inventors have shown for the first time that this is because the effects of R2 and R3 on glucose tend to cancel each other out. […] Therefore, R3-selectlvlty appears to be a desirable attribute for medicaments which are to be employed in achieving blood glucose reduction, for treatment of type 2 diabetes.
# [2] = Airway hyperresponsiveness in the primate acute asthma model; assay type: in vivo, cynomolgus monkeys (Macaca fascicularis)
# Description: Male cynomolgus monkeys (Macaca fascicularis) used in this study were maintained at constant temperature and humidity, with a twelve hour light cycle. They were fed twice daily, except on an experimental day when food was withheld the night before the procedure. Water was available ad lib at all times.
# Airway hyperresponsiveness (AHR)(baseline) was measured 1 week before the control (no treatment) antigen challenge, and again 24hrs after antigen challenge. Antigen-induced airway hyperresponsiveness was measured by a fall in the PC100 (the concentration of methacholine required to cause a 100% increase in lung resistance) at 24hr compared to baseline. After 2 weeks rest, another baseline measurement of AHR was performed. […] AHR was again measured, and the fall in PC100 with treatment was compared to that without treatment. […]
# The endotracheal tube was connected to a Harvard Ventilator adjusted to deliver 30-35 breaths per minute. Airflow was measured by a Fleisch pneumotachograph and thoracic pressure was measured by a validyne pressure transducer (as the difference between the pressure at the distal end of the et tube and room pressure). […]
# Antigen challenge: This was an inhalation challenge with Ascaris suum. […] 30 breaths of antigen were administered after which the acute bronchoconstriction was monitored for 15min. […]
# PACAP-R3 = molecular target: T1, PACAP-R3 (Homo sapiens, UniProt P41587); settings: literature; cited from earlier work
# T1 sequence (P41587 24-438): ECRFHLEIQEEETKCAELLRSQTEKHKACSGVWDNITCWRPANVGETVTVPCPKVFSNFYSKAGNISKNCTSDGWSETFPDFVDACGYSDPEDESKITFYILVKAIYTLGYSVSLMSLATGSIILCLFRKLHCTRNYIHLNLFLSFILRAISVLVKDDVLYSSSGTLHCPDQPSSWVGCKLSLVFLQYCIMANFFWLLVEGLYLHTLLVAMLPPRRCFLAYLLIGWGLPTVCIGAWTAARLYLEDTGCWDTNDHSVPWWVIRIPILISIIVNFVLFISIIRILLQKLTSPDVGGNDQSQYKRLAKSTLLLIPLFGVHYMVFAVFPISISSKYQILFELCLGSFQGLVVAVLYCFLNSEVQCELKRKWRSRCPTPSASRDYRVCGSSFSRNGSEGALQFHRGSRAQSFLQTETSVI
# rat islets = assay: Insulin release from isolated rat islets; assay type: cell-based, Sprague-Dawley rats; settings: peptide 10nM for 2hrs, 8mM glucose; % of [insulin] in 8mM glucose alone
# Description: Sprague Dawley rats (275-320 g) were used as the source of donor islets. Briefly, the pancreas was filled with 10 ml of cold reconstituted Liberase RI (Boehringer Manheim), harvested and incubated with additional 5 ml enzyme solution in water bath for 30 minutes. Tissue suspension was washed twice with cold 10% FBS/Hanks buffer (Gibco), resuspended in 8 ml 25% ficoll (Sigma) and then layered with 5 ml each of 23%, 20% and 11 % ficoll. The islets in the 20% layer after centrifugation were removed, washed twice with cold 10% FBS/Hank buffer and resuspended in 10% FBS/RPMI 1640 media (Sigma).
# Islet insulin release: Rat islets were isolated from Sprague-Dawley rats as described in example 1 and treated with either vehicle or specified peptide (10nM) for 2hrs. Insulin concentration in the medium was measured with the Linco rat insulin RIA kit. Glucose concentration in the medium was 8mM. The data are expressed as % of [insulin] in 8mM glucose alone. No polypeptide-induced Increases in insulin concentration were observed al 3 mM glucose; thus, the insulin releasing activity of these polypeptides are glucose-dependent. It should be noted that the following Table includes data for polypeptides which are not part of the present invention.
# [3] = system: guinea pig tracheal smooth muscle; settings: Bolin et al 1995; US 5,677,419; cited from earlier work
compound,measurement,setting,value
CCCC[C@H](NC(=O)[C@H](CCC(N)=O)NC(=O)[C@H](CCCCN)NC(=O)[C@H](CCCNC(=N)N)NC(=O)[C@H](CC(C)C)NC(=O)[C@H](CCCCN)NC(=O)[C@@H](NC(=O)[C@H](Cc1ccc(O)cc1)NC(=O)[C@H](CC(N)=O)NC(=O)[C@H](CCC(=O)O)NC(=O)[C@@H](NC(=O)[C@H](Cc1ccccc1)NC(=O)[C@@H](NC(=O)[C@H](C)NC(=O)[C@H](CC(=O)O)NC(=O)[C@H](CO)NC(=O)[C@H](Cc1c[nH]cn1)NC(C)=O)C(C)C)[C@@H](C)O)[C@@H](C)O)C(=O)N[C@@H](C)C(=O)N[C@@H](C)C(=O)N[C@@H](CCCCN)C(=O)N[C@H]1CCCCNC(=O)C[C@@H](C(=O)N[C@@H](CC(C)C)C(=O)N[C@@H](CCCCN)C(=O)N[C@@H](CCCCN)C(=O)NCC(=O)NCC(=O)N[C@H](C(N)=O)[C@@H](C)O)NC(=O)[C@H](CC(N)=O)NC(=O)[C@H](CC(C)C)NC(=O)[C@H](Cc2ccc(O)cc2)NC1=O [Peptide R3P0] (Ac-HSDAVFTENYTKLRKQ[Nle]AAKKYLNDLKKGGT-NH2; lactam 21-25 (inferred)),Plasma Glucose (% of Basal) i.v.,[1],77 % of Basal
same,"Delta log10 PC100, Mean, Treated","[2]; 0.6ug/mg aerosol 10 minutes before antigen challenge, +24hr minus baseline, N 4",-0.150
same,% Inhibition of induced AHR,"[2]; 0.6ug/mg aerosol, P(Treated vs Control) 0.240",54%
same,PACAP-R3 selectivity,PACAP-R3,greater than 100 fold
same,Islet Insulin Release (% of Basal),rat islets,264 % of Basal
same,relaxing guinea pig tracheal smooth muscle,[3],active
